Data reported in patent US20210214758A1, “METHODS AND TOOLS FOR DETERMINING CLONAL RELATEDNESS AND PREDICTING CLONAL TRAITS” (priority 2018, published 2021).

Test system: Klebsiella isolates
Assay: Antibiotic susceptibility of Klebsiella clinical isolates per 7-SNP clonotype (Lookup Table 1; disk diffusion)
Format: cell-based, Klebsiella spp.
Protocol: In further embodiments, the Lookup Table is Lookup Table 1. The information contained in Lookup Table 1 below was obtained from urine specimens from patients with Klebsiella infections from several clinics within different regions of the United States. CT=clonotypes determined using a 7-SNP combination: phoE54; rpoB130; infB279; mdh315; phoE336; phoE354; and mdh429.
Next, antibiotic resistance was determined for all 387 Klebsiella isolates in the discovery set. Antibiotic testing was carried out according to the standard disk diffusion method as described in the Clinical and Laboratory Standards Institute (M100 Performance Standards for Antimicrobial Susceptibility Testing, 27th Edition, 2017). […] Since almost all Klebsiella isolates are known to be resistant to AMP and sensitive to IMI, TET is not used for treatment of urinary tract infections, and ESBL production is partially reflected in resistance to CTR, these antibiotics were not included for further analysis.
To aid in clinical decision-making and to translate clonotype information to treatment selection, Lookup Table 1 was generated. […] The information contained in Lookup Table 1 was obtained from urine specimens from patients with Klebsiella infections from several clinics within different regions of the United States. Indications of allowance or non-recommendation were determined based on a 20% resistance threshold to the indicated antibiotic; i.e., the antibiotic is recommended when more than 80% of the tested isolates within the indicated clonotype were susceptible to the indicated antibiotic, and was cautioned against when less than 80% of the isolates were susceptible to the antibiotic.

In the case of `O=C1CN(/N=C/c2ccc([N+](=O)[O-])o2)C(=O)N1` [NIT, nitrofurantoin], the “susceptibility, %” value (CT 000) is reported as 91%, the “susceptibility, %” value (CT 001) is reported as 0% and the “susceptibility, %” value (CT 010) is reported as 33%. The “susceptibility, %” value (CT 011) was 82%, the “susceptibility, %” value (CT 031) was 100% and the “susceptibility, %” value (CT 040) was 50%. The “susceptibility, %” value (CT 050) was 33%, the “susceptibility, %” value (CT 051) was 56% and the “susceptibility, %” value (CT 071) was 60%. For the same compound, the “susceptibility, %” value (CT 100) was 86%, the “susceptibility, %” value (CT 110) was 0% and the “susceptibility, %” value (CT 111) was 30%. For the same compound, the “susceptibility, %” value (CT 130) was 70%, the “susceptibility, %” value (CT 131) was 56% and the “susceptibility, %” value (CT 141) was 0%. The “susceptibility, %” value (CT 150) was 42%, the “susceptibility, %” value (CT 151) was 41% and the “susceptibility, %” value (CT 160) was 0%. The “susceptibility, %” value (CT 170) was 39%, the “susceptibility, %” value (CT 171) was 28% and the “susceptibility, %” value (CT 200) was 97%. For the same compound, the “susceptibility, %” value (CT 201) was 66%, the “susceptibility, %” value (CT 210) was 57% and the “susceptibility, %” value (CT 211) was 81%. The “susceptibility, %” value (CT 230) was 0%, the “susceptibility, %” value (CT 231) was 50% and the “susceptibility, %” value (CT 240) was 100%. The “susceptibility, %” value (CT 241) was 0%, the “susceptibility, %” value (CT 250) was 50% and the “susceptibility, %” value (CT 251) was 57%. The “susceptibility, %” value (CT 271) was 50%, the “susceptibility, %” value (CT 300) was 0% and the “susceptibility, %” value (CT 301) was 64%. For the same compound, the “susceptibility, %” value (CT 310) was 47%, the “susceptibility, %” value (CT 311) was 60% and the “susceptibility, %” value (CT 330) was 15%. For the same compound, the “susceptibility, %” value (CT 331) was 53%, the “susceptibility, %” value (CT 350) was 54% and the “susceptibility, %” value (CT 351) was 59%. For the same compound, the “susceptibility, %” value (CT 370) was 25%, the “susceptibility, %” value (CT 371) was 25% and the “susceptibility, %” value (CT 411) was 50%. For the same compound, the “susceptibility, %” value (CT 450) was 50%, the “susceptibility, %” value (CT 451) was 67% and the “susceptibility, %” value (CT 510) was 0%. For the same compound, the “susceptibility, %” value (CT 511) was 100%, the “susceptibility, %” value (CT 530) was 31% and the “susceptibility, %” value (CT 531) was 33%. For the same compound, the “susceptibility, %” value (CT 550) was 19%, the “susceptibility, %” value (CT 551) was 18% and the “susceptibility, %” value (CT 570) was 25%. The “susceptibility, %” value (CT 571) was 50%, the “susceptibility, %” value (CT 611) was 50% and the “susceptibility, %” value (CT 630) was 0%. The “susceptibility, %” value (CT 650) was 63%, the “susceptibility, %” value (CT 651) was 35% and the “susceptibility, %” value (CT 670) was 0%. The “susceptibility, %” value (CT 710) was 67%, the “susceptibility, %” value (CT 730) was 36% and the “susceptibility, %” value (CT 731) was 67%. The “susceptibility, %” value (CT 750) was 50%, the “susceptibility, %” value (CT 751) was 33% and the “susceptibility, %” value (CT 771) was 57%. The “susceptibility, %” value (CT Any Klebsiella spp.) was 59%.

With trimethoprim/sulfamethoxazole [TS] the “susceptibility, %” value (CT 000) was 87%, the “susceptibility, %” value (CT 001) was 100% and the “susceptibility, %” value (CT 010) was 100%. The “susceptibility, %” value (CT 011) was 91%, the “susceptibility, %” value (CT 031) was 67% and the “susceptibility, %” value (CT 040) was 25%. The “susceptibility, %” value (CT 050) was 86%, the “susceptibility, %” value (CT 051) was 85% and the “susceptibility, %” value (CT 071) was 60%. For the same compound, the “susceptibility, %” value (CT 100) was 100%, the “susceptibility, %” value (CT 110) was 100% and the “susceptibility, %” value (CT 111) was 90%. For the same compound, the “susceptibility, %” value (CT 130) was 92%, the “susceptibility, %” value (CT 131) was 72% and the “susceptibility, %” value (CT 141) was 100%. The “susceptibility, %” value (CT 150) was 73%, the “susceptibility, %” value (CT 151) was 65% and the “susceptibility, %” value (CT 160) was 0%. The “susceptibility, %” value (CT 170) was 83%, the “susceptibility, %” value (CT 171) was 92% and the “susceptibility, %” value (CT 200) was 77%. For the same compound, the “susceptibility, %” value (CT 201) was 79%, the “susceptibility, %” value (CT 210) was 95% and the “susceptibility, %” value (CT 211) was 91%. The “susceptibility, %” value (CT 230) was 100%, the “susceptibility, %” value (CT 231) was 100% and the “susceptibility, %” value (CT 240) was 100%. The “susceptibility, %” value (CT 241) was 100%, the “susceptibility, %” value (CT 250) was 80% and the “susceptibility, %” value (CT 251) was 80%. The “susceptibility, %” value (CT 271) was 75%, the “susceptibility, %” value (CT 300) was 0% and the “susceptibility, %” value (CT 301) was 76%. For the same compound, the “susceptibility, %” value (CT 310) was 100%, the “susceptibility, %” value (CT 311) was 65% and the “susceptibility, %” value (CT 330) was 55%. For the same compound, the “susceptibility, %” value (CT 331) was 76%, the “susceptibility, %” value (CT 350) was 74% and the “susceptibility, %” value (CT 351) was 84%. For the same compound, the “susceptibility, %” value (CT 370) was 75%, the “susceptibility, %” value (CT 371) was 100% and the “susceptibility, %” value (CT 411) was 100%. The “susceptibility, %” value (CT 450) was 83%, the “susceptibility, %” value (CT 451) was 100% and the “susceptibility, %” value (CT 510) was 100%. The “susceptibility, %” value (CT 511) was 0%, the “susceptibility, %” value (CT 530) was 45% and the “susceptibility, %” value (CT 531) was 67%. The “susceptibility, %” value (CT 550) was 79%, the “susceptibility, %” value (CT 551) was 52% and the “susceptibility, %” value (CT 570) was 75%. For the same compound, the “susceptibility, %” value (CT 571) was 100%, the “susceptibility, %” value (CT 611) was 100% and the “susceptibility, %” value (CT 630) was 100%. For the same compound, the “susceptibility, %” value (CT 650) was 83%, the “susceptibility, %” value (CT 651) was 85% and the “susceptibility, %” value (CT 670) was 100%. For the same compound, the “susceptibility, %” value (CT 710) was 67%, the “susceptibility, %” value (CT 730) was 45% and the “susceptibility, %” value (CT 731) was 82%. The “susceptibility, %” value (CT 750) was 65%, the “susceptibility, %” value (CT 751) was 100% and the “susceptibility, %” value (CT 771) was 86%. For the same compound, the “susceptibility, %” value (CT Any Klebsiella spp.) was 80%.

In the case of `C[C@@H]1O[C@@H]1P(=O)(O)O` [FOS, fosfomycin], the “susceptibility, %” value (CT 000) is reported as 63%, the “susceptibility, %” value (CT 001) is reported as 0% and the “susceptibility, %” value (CT 010) is reported as 33%. The “susceptibility, %” value (CT 011) was 9%, the “susceptibility, %” value (CT 031) was 33% and the “susceptibility, %” value (CT 040) was 25%. For the same compound, the “susceptibility, %” value (CT 050) was 29%, the “susceptibility, %” value (CT 051) was 41% and the “susceptibility, %” value (CT 071) was 80%. For the same compound, the “susceptibility, %” value (CT 100) was 71%, the “susceptibility, %” value (CT 110) was 0% and the “susceptibility, %” value (CT 111) was 30%. The “susceptibility, %” value (CT 130) was 29%, the “susceptibility, %” value (CT 131) was 36% and the “susceptibility, %” value (CT 141) was 0%. The “susceptibility, %” value (CT 150) was 42%, the “susceptibility, %” value (CT 151) was 43% and the “susceptibility, %” value (CT 160) was 0%. The “susceptibility, %” value (CT 170) was 39%, the “susceptibility, %” value (CT 171) was 22% and the “susceptibility, %” value (CT 200) was 43%. The “susceptibility, %” value (CT 201) was 26%, the “susceptibility, %” value (CT 210) was 45% and the “susceptibility, %” value (CT 211) was 43%. For the same compound, the “susceptibility, %” value (CT 230) was 100%, the “susceptibility, %” value (CT 231) was 100% and the “susceptibility, %” value (CT 240) was 100%. The “susceptibility, %” value (CT 241) was 0%, the “susceptibility, %” value (CT 250) was 55% and the “susceptibility, %” value (CT 251) was 40%. For the same compound, the “susceptibility, %” value (CT 271) was 38%, the “susceptibility, %” value (CT 300) was 0% and the “susceptibility, %” value (CT 301) was 24%. For the same compound, the “susceptibility, %” value (CT 310) was 33%, the “susceptibility, %” value (CT 311) was 35% and the “susceptibility, %” value (CT 330) was 40%. The “susceptibility, %” value (CT 331) was 32%, the “susceptibility, %” value (CT 350) was 44% and the “susceptibility, %” value (CT 351) was 35%. The “susceptibility, %” value (CT 370) was 25%, the “susceptibility, %” value (CT 371) was 50% and the “susceptibility, %” value (CT 411) was 50%. For the same compound, the “susceptibility, %” value (CT 450) was 33%, the “susceptibility, %” value (CT 451) was 33% and the “susceptibility, %” value (CT 510) was 50%. The “susceptibility, %” value (CT 511) was 100%, the “susceptibility, %” value (CT 530) was 14% and the “susceptibility, %” value (CT 531) was 33%. For the same compound, the “susceptibility, %” value (CT 550) was 33%, the “susceptibility, %” value (CT 551) was 36% and the “susceptibility, %” value (CT 570) was 50%. The “susceptibility, %” value (CT 571) was 25%, the “susceptibility, %” value (CT 611) was 33% and the “susceptibility, %” value (CT 630) was 0%. For the same compound, the “susceptibility, %” value (CT 650) was 37%, the “susceptibility, %” value (CT 651) was 24% and the “susceptibility, %” value (CT 670) was 0%. For the same compound, the “susceptibility, %” value (CT 710) was 33%, the “susceptibility, %” value (CT 730) was 21% and the “susceptibility, %” value (CT 731) was 43%. For the same compound, the “susceptibility, %” value (CT 750) was 60%, the “susceptibility, %” value (CT 751) was 17% and the “susceptibility, %” value (CT 771) was 36%. For the same compound, the “susceptibility, %” value (CT Any Klebsiella spp.) was 41%.
